pIC50: −log10 of the molar value.
Test system: IFN-a/Jak1Tyk2
Experiment: Co-stimulation assay in lysed whole blood: IFNa (JAK1/TYK2) stimulated STAT1 phosphorylation
Assay type: cell-based
Conditions: lysed human whole blood, IFNa 100 ng/mL (co-stimulated with GM-CSF 10 ng/mL), pSTAT1 by flow cytometry
Protocol: Example 4: Co-Stimulation Assay in Lysed Whole Blood; JAK2: GM-CSF Stimulated STATS Phosphorylation and JAK1/TYK2 Stimulated STAT1 Phosphorylation Assay
Human Blood Lysis Using Abcam's RBC Lysis Buffer
Dilute RBC lysis buffer to 1× in distilled water. Add 2 mL blood to 38 mL of 1×RBC-lysis buffer. Incubate for 15 mins at RT, in dark. Spin at 300 g, 5 mins, to collect the pellet. Re-lyse if necessary. Re-suspend pellet in 5 mL of cRPMI.
Compound and Cytokine Treatment
Aliquot 80 μL of lysed human blood in to wells of 96 deep-well plate. Add 10 μl of (10× conc.) of different concentrations of compounds to all wells except controls (unstained and unstimulated) and mix it with the help of 100 uL multichannel. Add 10 uL of RPMI media in controls. For dilution of compounds and dilution range please refer Appendix. Incubate on water bath or CO2 incubator for 1 hour at 37° C. Add 10 μL of (10× conc.) of cytokine mix (GM-CSF and IFNa) (final conc. 10 ng/mL of GM-CSF and 100 ng/mL of IFNa) to each well except unstimulated and unstained controls and incubate further for 20 minutes on water bath at 37° C.
Add 900 μL of prewarmed 1× Fix/Lyse solution (Appendix) and mix it properly using 1000 μl multichannel, incubate further on water bath at 37° C. for 10 minutes (which includes time of addition). Centrifuge at 800× g for 5 minutes at 40° C.; remove 900 uL of supernatant and add 900 μL of 1×PBS. Centrifuge at 800× g for 5 minutes at 40° C., remove 900 μL of supernatant. Wash one more time with 900 μL of PBS (optional) and resuspend pellets in 100 uL of PBS.
Disrupt the pellet by gentle tapping and resuspend in 1000 μL of BD Phosflow Perm Buffer III and incubate plate on ice for 30 minutes. Centrifuge plate at 800× g for 5 minutes at 40° C. Wash two more times with 1000 μL of BD Pharmingen Stain Buffer.
Disrupt the pellet by gentle tapping. Resuspend pellets in 100 uL of Stain Buffer and add 5 μL of pSTAT5_AF488 Ab and 5 uL of pSTAT1_PE in all wells except unstained control and mix properly using 200 μl multichannel, incubate overnight at […]. Add 900 μL of wash buffer and centrifuge at 1800 rpm for 3 minutes at […]. Wash one more time with 1000 μL of BD Pharmingen Stain Buffer. Finally resuspend the pellet in 300 uL of BD Pharmingen Stain Buffer. Transfer the cells to 96-well v-bottom plate and acquire the cells in Beckman Coulter CytExpert. Acquiring cells in Flow Cytometer: Keep the threshold value to 250 and cell concentration should not exceed 100-500 cells/μL. Acquire at least 5,000-10,000 cells.
RPMI 1640 Complete Medium: RPMI 1640 media+10% FBS.
Cytokine dilution: 1) GM-CSF Stock at 100 ug/mL. Prepare an intermediate dilution of 1 ug/mL by adding 2 uL of stock into 198 uL of cRPMI. Further dilute to 100 ng/mL by adding 100 uL of the intermediate stock to 900 uL of cRPMI. 2) IFNa Stock at 200 ug/mL. Dilute IFNa stock 1:200 by adding 5 uL of stock into the 1000 uL of 100 ng/mL GM-CSF working stock as above to give a combined working stock of 1000 ng/mL of IFNa and 100 ng/mL GM-CSF (lox). Keep it on ice until used.
Lyse/Fix buffer preparation: Dilute 5× Lyse/Fix buffer to 1× using MQ water and keep at 37° C. until used.
BD Phosflow perm buffer III: Keep on ice/fridge.

Compound	pIC50
CNc1cc2nc3c(cnn13)C(=O)NCCOc1cc(c(Cl)cc1Cl)N2 [Compound 27, (1^3E,1^4E)-3^4,3^6-dichloro-1^7-(methylamino)-4-oxa-2,7-diaza-1(5,3)-pyrazolo[1,5-a]pyrimidina-3(1,3)-benzenacyclooctaphan-8-one]	6.00 to 7.00
CNc1cc2nc3c(cnn13)C(=O)NCCOc1cc(ccc1F)N2 [Compound 21, (1^3E,1^4E)-3^4-fluoro-1^7-(methylamino)-4-oxa-2,7-diaza-1(5,3)-pyrazolo[1,5-a]pyrimidina-3(1,3)-benzenacyclooctaphan-8-one]	6.00 to 7.00
CNc1cc2nc3c(cnn13)C(=O)NCC(C)(C)c1cccc(c1)N2 [Compound 13, (1^3E,1^4E)-4,4-dimethyl-1^7-(methylamino)-2,6-diaza-1(5,3)-pyrazolo[1,5-a]pyrimidina-3(1,3)-benzenacycloheptaphan-7-one]	≥ 6.30
CNc1cc2nc3c(cnn13)C(=O)NCCOc1cc(C)cc(c1)N2 [Compound 26, (1^3E,1^4E)-3^5-methyl-1^7-(methylamino)-4-oxa-2,7-diaza-1(5,3)-pyrazolo[1,5-a]pyrimidina-3(1,3)-benzenacyclooctaphan-8-one]	6.00 to 7.00
[2H]C1([2H])NC(=O)c2cnn3c(NC)cc(nc23)Nc2cccc(c2)OC1([2H])[2H] [Compound 15, (1^3E,1^4E)-1^7-(methylamino)-4-oxa-2,7-diaza-1(5,3)-pyrazolo[1,5-a]pyrimidina-3(1,3)-benzenacyclooctaphn-8-one-5,5,6,6-d4]	≥ 6.30
CNc1cc2nc3c(cnn13)C(=O)NCCOc1cc(c(F)cc1F)N2 [Compound 29, (1^5E,1^4E)-3^4,3^6-difluoro-1^7-(methylamino)-4-oxa-2,7-diaza-1(5,3)-pyrazolo[1,5-a]pyrimidina-3(1,3)-benzenacyclooctaphan-8-one]	6.00 to 7.00

The remaining lines, values ahead:

pIC50	Compound
5.00 to 6.00	CNc1cc2nc3c(cnn13)C(=O)NCCCOc1ccc(F)cc1N2 [Compound 46, (1^3E,1^4E)-3^5-fluoro-1^7-(methylamino)-4-oxa-2,8-diaza-1(5,3)-pyrazolo[1,5-a]pyrimidina-3(1,2)-benzenacyclononaphan-9-one]
5.00 to 6.00	CNc1cc2nc3c(cnn13)C(=O)NCCOc1cncc(c1)N2 [Compound 41, (1^3E,1^4E)-1^7-(methylamino)-4-oxa-2,7-diaza-1(5,3)-pyrazolo[1,5-a]pyrimidina-3(3,5)-pyridinacyclooctaphan-8-one]
6.00 to 7.00	CNc1cc2nc3c(cnn13)C(=O)NCCOc1cc(ccc1OC)N2 [Compound 31, (1^3E,1^4E)-3^4-methoxy-1^7-(methylamino)-4-oxa-2,7-diaza-1(5,3)-pyrazolo[1,5-a]pyrimidina-3(1,3)-benzenacyclooctaphan-8-one]
5.00 to 6.00	CNc1cc2nc3c(cnn13)C(=O)NCCCn1cc(cn1)N2 [Compound 45, (1^3E,1^4E,3^4E)-1^7-(methylamino)-31H-2,7-diaza-1(5,3)-pyrazolo[1,5-a]pyrimidina-3(4,1)-pyrazolacyclooctaphan-8-one]
6.00 to 7.00	CNc1cc2nc3c(cnn13)C(=O)NCC(C)Oc1ccccc1N2 (centres unmarked) [Compound 30, (1^3E,1^4E)-5-methyl-1^7-(methylamino)-4-oxa-2,7-diaza-1(5,3)-pyrazolo[1,5-a]pyrimidina-3(1,2)-benzenacyclooctaphan-8-one]

Source: patent US11780842B2, “TYK2 pseudokinase ligands” (Ventyx Biosciences, Inc., priority 2019, dated 2023)
